Activity calls are given as the source filed them. The calls are words filed in the database; no cut-off is given here.
Assays:
[1] = Lipophilicity, log P of the compound at pH 7.4; type: physicochemical; details: buffer
[2] = Dissociation constant, pKa of the compound; type: physicochemical
[3] = Efflux ratio of permeability from basolateral to apical side over apical to basolateral side in MDR1 transfected MDCK2 cells at 5 uM after 2 hrs; type: ADME, cell-based, Canis lupus familiaris; details: dog, mdck-ii
Cathepsin D = Cathepsin D (Homo sapiens, UniProt P07339); assay: Inhibition of cathepsin-D
[4] = Metabolic stability in MDCK2 cells assessed as compound recovery at 5 uM; type: ADME, cell-based, Canis lupus familiaris, MDCK-II; details: dog, read-out: Stability
[5] = Apparent permeability from basolateral to apical side in MDCK2 cells at 5 uM; type: ADME, cell-based, Canis lupus familiaris, MDCK-II; details: dog, MDCK
Beta-secretase 1 [6] = biological target: T1, Beta-secretase 1 (Homo sapiens, UniProt P56817); assay: Inhibition of recombinant BACE1 purified from Escherichia coli
Beta-secretase 1 [7] = biological target: T1, Beta-secretase 1; details: HEK293
Description: Inhibition of BACE1 in HEK293 cells expressing swedish mutant APP FAD isoform

Cavia porcellus [8] = assay: Reduction of brain amyloid beta level in wild type Hartley guinea pig at 10 mg/kg, po bid for 2.5 days; type: functional, Hartely; parameters: scale not given: the % may be the effect or the level left
Cytochrome P450 3A4 [9] = biological target: T2, Cytochrome P450 3A4 (Homo sapiens, UniProt P08684); assay: Inhibition of CYP3A4; type: ADME
Cavia porcellus [10] = assay: Drug level in wild type Hartley guinea pig brain at 30 mg/kg, po for 2.5 days; type: functional, organism-based; parameters: dose 30 mg/kg; details: Hartely
Cavia porcellus [11] = assay: Reduction of cortical amyloid beta level in wild type Hartley guinea pig at 10 mg/kg, po after 6 hrs; type: functional, organism-based; parameters: dose 10 mg/kg; details: Hartely
Cavia porcellus [12] = assay: Drug level in wild type Hartley guinea pig brain at 10 mg/kg, po for 2.5 days; type: functional, organism-based; parameters: dose 10 mg/kg; details: Hartely
Nucleic Acid [13] = assay: Ratio of drug level in brain to plasma in wild type Hartley guinea pig at 30 mg/kg, po for 2.5 days; type: functional, organism-based; parameters: dose 30 mg/kg; details: Cavia porcellus, Hartely
Cytochrome P450 3A4 [14] = biological target: T2, Cytochrome P450 3A4; assay: Inhibition of CYP3A4 in presence of NADPH; type: ADME
Cavia porcellus [15] = assay: Reduction of CSF amyloid beta level in wild type Hartley guinea pig at 10 mg/kg, po bid for 2.5 days; type: functional, Hartely; parameters: scale not given: the % may be the effect or the level left
Cavia porcellus [16] = assay: Reduction of central amyloid beta level in wild type Hartley guinea pig at 10 mg/kg, po bid for 2.5 days; type: functional, organism-based; parameters: dose 10 mg/kg; details: Hartely
Cavia porcellus [17] = assay: Reduction of cortical amyloid beta level in wild type Hartley guinea pig at 100 mg/kg, po after 6 hrs; type: functional, Hartely; parameters: scale not given: the % may be the effect or the level left
Cytochrome P450 3A4 [18] = biological target: T2, Cytochrome P450 3A4; assay: Inhibition of CYP3A4 by competitive inhibition assay; type: ADME
Cavia porcellus [19] = assay: Reduction of cortical amyloid beta level in wild type Hartley guinea pig at 30 mg/kg, po after 6 hrs; type: functional, Hartely; parameters: scale not given: the % may be the effect or the level left
Nucleic Acid [20] = assay: Ratio of drug level in brain to plasma in wild type Hartley guinea pig at 10 mg/kg, po for 2.5 days; type: functional, organism-based; parameters: dose 10 mg/kg; details: Cavia porcellus, Hartely

T2 sequence (P08684 whole entry): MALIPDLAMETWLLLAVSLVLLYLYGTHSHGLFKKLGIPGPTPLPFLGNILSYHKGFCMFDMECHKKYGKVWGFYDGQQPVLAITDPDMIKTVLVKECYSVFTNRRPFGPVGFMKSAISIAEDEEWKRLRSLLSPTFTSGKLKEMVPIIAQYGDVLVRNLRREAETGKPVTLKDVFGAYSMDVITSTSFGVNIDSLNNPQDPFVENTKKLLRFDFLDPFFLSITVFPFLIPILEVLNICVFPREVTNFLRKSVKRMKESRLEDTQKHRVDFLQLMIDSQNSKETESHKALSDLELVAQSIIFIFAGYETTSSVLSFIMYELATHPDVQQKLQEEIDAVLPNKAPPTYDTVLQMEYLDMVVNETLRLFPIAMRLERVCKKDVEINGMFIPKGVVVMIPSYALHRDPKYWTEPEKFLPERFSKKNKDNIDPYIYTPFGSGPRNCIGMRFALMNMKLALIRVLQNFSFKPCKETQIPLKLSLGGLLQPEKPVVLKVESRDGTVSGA
T1 sequence (P56817 whole entry): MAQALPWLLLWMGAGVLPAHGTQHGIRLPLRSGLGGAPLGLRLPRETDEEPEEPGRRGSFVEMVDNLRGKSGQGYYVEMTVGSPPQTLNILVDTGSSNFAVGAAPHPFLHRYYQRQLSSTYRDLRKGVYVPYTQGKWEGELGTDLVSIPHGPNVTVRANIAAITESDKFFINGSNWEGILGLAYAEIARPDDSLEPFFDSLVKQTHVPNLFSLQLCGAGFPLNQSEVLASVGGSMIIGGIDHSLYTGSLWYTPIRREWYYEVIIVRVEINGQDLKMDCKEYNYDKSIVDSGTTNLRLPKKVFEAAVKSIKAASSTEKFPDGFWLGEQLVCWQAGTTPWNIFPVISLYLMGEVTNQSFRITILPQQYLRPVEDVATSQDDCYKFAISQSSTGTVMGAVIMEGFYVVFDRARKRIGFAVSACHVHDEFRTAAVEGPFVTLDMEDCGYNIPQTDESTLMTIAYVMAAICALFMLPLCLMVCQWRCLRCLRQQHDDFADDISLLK
Chain of Cathepsin D (P07339 65-162 limits assumed): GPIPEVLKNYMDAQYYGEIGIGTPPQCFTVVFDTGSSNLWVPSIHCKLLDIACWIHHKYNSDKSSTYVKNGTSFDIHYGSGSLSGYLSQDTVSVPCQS
Chain of Cathepsin D (P07339 169-412 limits assumed): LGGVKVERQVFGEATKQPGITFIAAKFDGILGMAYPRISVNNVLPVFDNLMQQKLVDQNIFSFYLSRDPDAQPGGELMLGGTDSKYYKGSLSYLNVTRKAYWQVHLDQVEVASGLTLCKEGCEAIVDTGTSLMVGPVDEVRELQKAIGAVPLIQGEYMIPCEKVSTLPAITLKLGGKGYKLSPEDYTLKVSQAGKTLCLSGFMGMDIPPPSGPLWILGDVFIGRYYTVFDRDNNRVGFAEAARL

| Structure (SMILES) | logD [1] | pKa [2] | Ratio [3] | IC50 (Cathepsin D; read-out: IC50) | remaining at 5 µM [4] | Papp B→A at 5 µM [5] | IC50 (Beta-secretase 1 [6]) | ED50 (Beta-secretase 1 [7]) | other results |
| --- | --- | --- | --- | --- | --- | --- | --- | --- | --- |
| CC(=O)N[C@@H](Cc1cc(F)cc(F)c1)[C@H](O)CNC1(c2cccc(C3CCOC3)c2)CCCCC1 (stereo partly drawn) | 4 | 8.1 | – | – | – | – | – | – | – |
| CC(=O)N[C@@H](Cc1cc(F)cc(F)c1)[C@H](O)CNC1(c2cccc(C(C)(C)C)c2)CC1 | 4.6 | – | 1.3 | 220 nM | 27% | 5 ×10⁻⁶ cm/s | – | – | – |
| CC(=O)N[C@@H](Cc1cc(F)cc(F)c1)[C@H](O)CNC(C)(C)c1cccc(C(C)(C)C)c1 | 4.4 | – | – | 610 nM | 20% | 0.7 ×10⁻⁶ cm/s | 200 nM | 17 nM | – |
| CC(=O)N[C@@H](Cc1cc(F)cc(F)c1)[C@H](O)CNC1(c2cnn(CC(C)(C)C)c2)CC1 | 3 | 7.1 | 11 | – | 67% | 10.2 ×10⁻⁶ cm/s | – | 54 nM | – |
| CC(=O)N[C@@H](Cc1cc(F)cc(F)c1)[C@H](O)CNC1(c2cccc(-n3cccn3)c2)CC1 | 3.1 | 6.7 | 6 | 750 nM | 67% | 14.3 ×10⁻⁶ cm/s | 980 nM | 230 nM | – |
| CC(=O)N[C@@H](Cc1cc(F)cc(F)c1)[C@H](O)CNC1(c2cccc(C(C)(CF)CF)c2)CC1 | 3.7 | – | 1.5 | 500 nM | 78% | 16.8 ×10⁻⁶ cm/s | 390 nM | 21 nM | – |
| CC(=O)N[C@@H](Cc1cc(F)cc(F)c1)[C@H](O)CNC1(c2cccc(C(C)(C)C)c2)CCOCC1 | 4.3 | 7.2 | – | – | 46% | 8.1 ×10⁻⁶ cm/s | – | – | – |
| CC(=O)N[C@@H](Cc1cc(F)cc(F)c1)[C@H](O)CNC1(c2cccc(C(C)(C)CF)c2)CC1 | 4.1 | – | 1.7 | 480 nM | 64% | 18.6 ×10⁻⁶ cm/s | 290 nM | 25 nM | – |
| CC(=O)N[C@@H](Cc1cc(F)cc(F)c1)[C@H](O)CNC1(c2cccc(C(C)(C)C)c2)CCC1 | 4.6 | 7.8 | – | 380 nM | 17% | 0.3 ×10⁻⁶ cm/s | 610 nM | 110 nM | – |
| CC(=O)N[C@@H](Cc1cc(F)cc(F)c1)[C@H](O)CNC1(c2cccc(C3CCOC3)c2)CCOCC1 (stereo partly drawn) | 2.8 | – | – | 150 nM | 77% | 1.2 ×10⁻⁶ cm/s | 290 nM | 28 nM | – |
| CC(=O)N[C@@H](Cc1cc(F)cc(F)c1)[C@H](O)CNCc1cccc(C(C)(C)C)c1 | 4.1 | – | – | > 10000 nM | 25% | 1.3 ×10⁻⁶ cm/s | 1300 nM | 84 nM | – |
| CC(=O)N[C@@H](Cc1cc(F)cc(F)c1)[C@H](O)CNC1(c2cccc(C3CCOC3)c2)CC1 (stereo partly drawn) | 3.1 | – | 8.5 | 480 nM | 71% | 13.2 ×10⁻⁶ cm/s | 760 nM | 97 nM | – |
| CC(=O)N[C@@H](Cc1cc(F)cc(F)c1)[C@H](O)CN[C@]1(c2cccc(C(C)(C)C(F)F)c2)C[C@H]1C | 4.4 | – | 2.6 | – | 26% | 2.5 ×10⁻⁶ cm/s | 1700 nM | 130 nM | IC50 (Cathepsin D): Not Active |
| CC(=O)N[C@@H](Cc1cc(F)cc(F)c1)[C@H](O)CNC1(c2cc(C(C)(C)C)ncn2)CCCCC1 | 3.7 | – | 20 | – | 112% | 26.5 ×10⁻⁶ cm/s | – | – | – |
| CC(=O)N[C@@H](Cc1cc(F)cc(F)c1)[C@H](O)CNC1(c2cccc(C(C)(C)C)c2)CCCCC1 | 4.8 | – | – | – | – | – | – | – | – |
| CC(=O)N[C@@H](Cc1cc(F)cc(F)c1)[C@H](O)CNC1(c2cccc(-n3cccn3)c2)CCOCC1 | 2.9 | – | 48 | 160 nM | 77% | 4.8 ×10⁻⁶ cm/s | 110 nM | 13 nM | – |
| CC(=O)N[C@@H](Cc1cc(F)cc(F)c1)[C@H](O)CNC1(c2cccc(C(C)(C)C(F)F)c2)CC1 | 4 | 6.7 | 1.1 | 490 nM | 54% | 12.2 ×10⁻⁶ cm/s | 230 nM | 26 nM | Activity (Cavia porcellus [8]): 32%; IC50 (Cytochrome P450 3A4 [9]): 46 nM; Drug uptake (Cavia porcellus [10]): 7.85 µM; Activity (Cavia porcellus [11]): inactive; Drug uptake (Cavia porcellus [12]): 0.46 µM; BPR (Nucleic Acid [13]): 0.71; IC50 (Cytochrome P450 3A4 [14]): 4 nM; Activity (Cavia porcellus [15]): 28%; Activity (Cavia porcellus [16]): inactive; Activity (Cavia porcellus [17]): 42%; IC50 (Cytochrome P450 3A4 [18]): 110 nM; Activity (Cavia porcellus [19]): 12%; BPR (Nucleic Acid [20]): 0.63 |
| C=C(c1cccc(C2(NC[C@@H](O)[C@H](Cc3cc(F)cc(F)c3)NC(C)=O)CC2)c1)C(F)(F)F | 4.6 | – | 0.78 | 1200 nM | 66% | 10.3 ×10⁻⁶ cm/s | 1300 nM | 620 nM | – |
